The values that follow come from patent US20100010024A1, “USE OF1,4-DIARYL-DIHYDROPYRIMIDINE-2-ON DERIVATIVES FOR TREATING PULMONARY ARTERIAL HYPERTENSION” (Bayer Healthcare AG, priority 2006, published 2010).

For orientation: IC50 means the midpoint of a concentration-inhibition curve. Read a high IC50 as weaker potency in that assay.

For the assay, the target named is T1, human neutrophil elastase (HNE) (Homo sapiens, UniProt P08246).
T1 construct: purchased Serva, Heidelberg
T1 sequence (P08246 30-267): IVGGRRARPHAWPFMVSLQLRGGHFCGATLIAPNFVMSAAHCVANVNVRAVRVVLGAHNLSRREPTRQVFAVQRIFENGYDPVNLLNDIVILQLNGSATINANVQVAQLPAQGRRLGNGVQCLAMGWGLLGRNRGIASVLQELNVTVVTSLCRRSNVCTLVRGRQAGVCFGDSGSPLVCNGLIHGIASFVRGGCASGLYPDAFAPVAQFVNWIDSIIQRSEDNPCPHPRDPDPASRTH
Nature of the assay: In vitro HNE inhibition assay. It is filed as biochemical. Conditions: 80 pM HNE, 20 μM MeOSuc-Ala-Ala-Pro-Val-AMC, 37° C., 2 hours, fluorescence. As to the method: B-1. In vitro HNE Inhibition Assay
The potency of the compounds of the invention is ascertained in an in vitro inhibition assay. The HNE-mediated amidolytic cleavage of a suitable peptide substrate leads in this connection to an increase in the fluorescent light. The signal intensity of the fluorescent light is directly proportional to the enzyme activity.
Enzyme (80 pM HNE; from Serva, Heidelberg) and substrate (20 μM MeOSuc-Ala-Ala-Pro-Val-AMC; from Bachem, Weil am Rhein) are incubated in an assay volume of in total 50 μl of assay buffer (0.1 M HEPES pH 7.4, 0.5 M NaCl, 0.1% w/v BSA, 1% v/v DMSO) in a 384-well microtiter plate in the presence and absence of the test substance at 37° C. for 2 hours. […] The IC50 values are determined by plotting the intensity of the fluorescent light against the active substance concentration.

Turning to `CC1=C(C(=O)C2CCC2)[C@@H](c2ccc(C#N)cc2)NC(=O)N1c1cccc(C(F)(F)F)c1` [Example 3, 4-{(4R)-5-(Cyclobutylcarbonyl)-6-methyl-2-oxo-1-[3-(trifluoromethyl)phenyl]-1,2,3,4-tetrahydropyrimidin-4-yl}benzonitrile], inhibition was half-maximal at 14.8 nM (IC50).

In the case of `CC(=O)C1=C(C)N(c2ccc(F)c(C(F)(F)F)c2)C(=O)N[C@@H]1c1ccc(C#N)cc1` [Example 7, 4-{(4R)-5-Acetyl-1-[4-fluoro-3-(trifluoromethyl)phenyl]-6-methyl-2-oxo-1,2,3,4-tetrahydropyrimidin-4-yl}benzonitrile], the concentration for half-maximal inhibition (IC50) worked out at 5.2 nM. This IC50 lies about 2.8-fold lower than the previous one.

Consider `CC1=C(C(=O)C2CCC2)[C@@H](c2ccc(C#N)cc2)N(CC(=O)O)C(=O)N1c1cccc(C(F)(F)F)c1` [Example 8, [(6R)-6-(4-Cyanophenyl)-5-(cyclobutylcarbonyl)-4-methyl-2-oxo-3-[3-(trifluoromethyl)phenyl]-3,6-dihydropyrimidin-1(2H)-yl]acetic acid], for which the IC50 turned out to be 4.3 nM.

With `CC1=C(C(=O)C(C)C)[C@@H](c2ccc(C#N)cc2)N(CC(=O)O)C(=O)N1c1cccc(C(F)(F)F)c1` [Example 16, [(6R)-6-(4-Cyanophenyl)-5-isobutyryl-4-methyl-2-oxo-3-[3-(trifluoromethyl)phenyl]-3,6-dihydropyrimidin-1(2H)-yl]acetic acid], the midpoint of inhibition, the IC50, lay at 2.9 nM.

`CC(=O)C1=C(C)N(c2cccc(C(F)(F)F)c2)C(=O)N(Cc2cccc(C(=O)O)c2)[C@@H]1c1ccc(C#N)cc1` [Example 17, 3-{[(6R)-5-Acetyl-6-(4-cyanophenyl)-4-methyl-2-oxo-3-[3-(trifluoromethyl)phenyl]-3,6-dihydropyrimidin-1(2H)-yl]methyl}benzoic acid]: the IC50 is 3.9 nM.

In the case of `CC(=O)C1=C(C)N(c2cccc(C(F)(F)F)c2)C(=O)N(Cc2ccc(C(=O)O)cc2)[C@@H]1c1ccc(C#N)cc1` [Example 18, 4-{[(6R)-5-Acetyl-6-(4-cyanophenyl)-4-methyl-2-oxo-3-[3-(trifluoromethyl)phenyl]-3,6-dihydropyrimidin-1(2H)-yl]methyl}benzoic acid], the IC50 is 2.9 nM.

Compound `CC(=O)C1=C(C)N(c2cccc(C(F)(F)F)c2)C(=O)N(CC(N)=O)[C@@H]1c1ccc(C#N)cc1` [Example 21, 2-[(6R)-5-Acetyl-6-(4-cyanophenyl)-4-methyl-2-oxo-3-[3-(trifluoromethyl)phenyl]-3,6-dihydropyrimidine-1(2H)-yl]acetamide] yielded an IC50 of 5.5 nM.

The compound `CC1=C(C(=O)OCCO)[C@@H](c2ccc(C#N)cc2)N(CC(N)=O)C(=O)N1c1cccc(C(F)(F)F)c1` [Example 29] had an IC50 of 1.4 nM.

With `CCOC(=O)C1=C(C)N(c2cccc(C(F)(F)F)c2)C(=O)N(CC(=O)N(C)C)[C@@H]1c1ccc(C#N)cc1` [Example 30, Ethyl(4R)-4-(4-cyanophenyl)-3-[2-(dimethylamino)-2-oxoethyl]-6-methyl-2-oxo-1-[3-(trifluoromethyl)phenyl]-1,2,3,4-tetrahydropyrimidine-5-carboxylate], half-maximal inhibition (IC50) required 0.4 nM. This IC50 lies about 3.5-fold lower than the previous one.
